Experimental data from patent US20260355169A1, “METHODS OF TREATING CANCERS USING ISOQUINOLINE OR 6-AZA-QUINOLINE DERIVATIVES” (Black Diamond Therapeutics, Inc., priority 2022, published 2026).

What follows are compounds tested on BaF3 BRAF-KIAA1549 fusion cells (assay: BaF3 BRAF-KIAA1549 fusion cell proliferation assay). Conditions: Mus musculus, BaF3, 96 h, read-out: IC50, inhibition of cell growth, BaF3-BRAF:KIAA1549 Fusion.
Format: cell-based
Description: Retroviral Production: The BRAF-KIAA1549 fusion mutant was subcloned into pMXs-IRES-Blasticidin (RTV-016, Cell Biolabs, San Diego, CA). […]. Briefly, HEK 293T cells were plated in Poly-D-lysine coated 6-well plate (2.5×10^5 cells per well) and incubated overnight. The next day, retroviral plasmids (1 μg of BRAF-KIAA fusion mutant, 0.32 μg of pCMV-Gag-Pol and 0.165 μg pCMV-VSV-G) were mixed in 300 μL of Optimem (31985, Life Technologies). The mixture was incubated at room temperature for 5 minutes and then added to Optimem containing transfection reagent Lipofectamine (11668, Invitrogen) and incubated for 20 minutes. The mixture was then added dropwise to HEK 293T cells. The next day the medium was replaced with fresh culture medium and retrovirus was harvested at 24 hours.
Generation of BRAF-KIAA1549 fusion stable cell line: BaF3 cells were plated in V-bottom 96 well plate (COSTAR #3894) in 80 μL of RPMI/10% FBS and 0.01 ng/mL mouse IL-3, supplemented with 8 μg/mL polybrene (4×10^4 cells/well). Cells were transduced with 20 μL of BRAF-KIAA1549 fusion viral supernatant by centrifuging for 30 minutes at 1000 rpm. Cells were placed in a 37 °C incubator overnight. Next day 100 μL of RPMI/10% FBS and 0.01 ng/mL mouse IL-3 was added. After 24 hours, 100 μL of cells were transferred to a 24 well plate containing 900 μL of RPMI/10% FBS and 15 μg/mL Blasticidin. Contents of the 24 well plate were sampled for cell viability via CellTiterGlo (Promega) over a 2-week period.
Assay for cell proliferation: BaF3 BRAF-KIAA1549 fusion cells were resuspended at 1.5×10^5 c/mL in RPMI containing 10% Heat Inactivated FBS, 1% L-glutamine and dispensed in duplicate ([…]) into 384 well plates. To determine the effect of compound on cell proliferation, BaF3 BRAF-KIAA1549 fusion cells were incubated for 96 hours in the presence of vehicle control (DMSO) or compound at varying concentrations. Inhibition of cell growth was determined by luminescent quantification (Envision by Perkin Elmer) of intracellular ATP content using CellTiterGlo (Promega), according to the protocol provided by the manufacturer. To determine the IC50 values, the vehicle-treated cells were normalized as viable cells and analyzed using the CDD Vault, Collaborative Drug Discovery, Burlingame, CA (the Levenberg-Marquardt algorithm; Levenberg, K, […]; Marquardt, D., 1963).
Table A assigns each compound a code for potency in the BaF3 BRAF-KIAA1549 fusion cell proliferation assay: A, B, C, or D. According to the code, A represents an IC50 value<20 nM; B represents an IC50 value≥20 nM and <100 nM; C represents an IC50 value≥100 nM and <500 nM; and D represents an IC50 value≥500 nM.

Row | SMILES | IC50 [nM]
1 | CNc1cc2ncc(-c3cc(NC(=O)c4cc(C(C)(C)F)ccn4)cnc3C)cc2cn1 [compound 65] | 20 to 100
2 | CNc1cc2ncc(-c3cc(NC(=O)c4cc(C(F)F)c(F)cn4)cnc3C)cc2cn1 [compound 66] | 20 to 100
3 | CNc1cc2ncc(-c3cc(NC(=O)[C@H](C)n4cnc(C(F)(F)F)n4)ccc3C)cc2cn1 [compound 68] | 20 to 100
4 | CNc1cc2ncc(-c3cc(NC(=O)[C@@H](C)n4cnc(C(F)(F)F)n4)ccc3C)cc2cn1 [compound 69] | 100 to 500
5 | CNc1cc2ncc(-c3cc(NC(=O)c4cc(C(F)(F)F)c(OCCO)cn4)ccc3C)cc2cn1 [compound 71] | 20 to 100
6 | CNc1cc2ncc(-c3cc(NC(=O)c4ccc(OC(F)F)cn4)cnc3C)cc2cn1 [compound 72] | > 500
7 | CNc1cc2ncc(-c3cc(NC(=O)c4cc(C(F)(F)F)ccn4)nnc3C)cc2cn1 [compound 75] | 20 to 100
8 | CNc1cc2ncc(-c3cc(NC(=O)c4cc(C(C)(C)C#N)ccn4)nnc3C)cc2cn1 [compound 77] | 20 to 100
9 | Cc1ccc(NC(=O)c2cc(C(F)F)ccn2)cc1-c1cnc2cc(NCCC#N)ncc2c1 [compound 78] | 20 to 100
10 | CNc1cc2nc(C#N)c(-c3cc(NC(=O)c4ccnc(C(F)(F)F)c4)ccc3C)cc2cn1 [compound 79] | < 20
11 | CCNc1cc2ncc(-c3cc(NC(=O)c4ccnc(C5(F)CC5)c4)ccc3C)cc2cn1 [compound 153] | 20 to 100
12 | Cc1ccc(NC(=O)c2ccnc(C3(F)CC3)c2)cc1-c1cnc2cc(N)ncc2c1 [compound 154] | < 20
13 | CCNc1cc2ncc(-c3cc(NC(=O)c4cc(C(C)(C)C#N)ccn4)ccc3C)cc2cn1 [compound 173] | 20 to 100
14 | Cc1ccc(NC(=O)c2cc(C(C)(C)C#N)ccn2)cc1-c1cnc2cc(N)ncc2c1 [compound 174] | 20 to 100
15 | CCNc1cc2ncc(-c3cc(NC(=O)c4cc(C(C)(C)C#N)ccn4)cnc3C)cc2cn1 [compound 175] | 20 to 100
16 | Cc1ncc(NC(=O)c2cc(C(C)(C)C#N)ccn2)cc1-c1cnc2cc(N)ncc2c1 [compound 176] | 20 to 100
17 | CNc1cc2ncc(-c3cc(NC(=O)N(C)c4cc(C(F)F)ccn4)ccc3C)cc2cn1 [compound 189] | 100 to 500
18 | CNc1cc2ncc(-c3cc(NC(=O)N(C)c4ccnc(C(F)F)c4)cnc3C)cc2cn1 [compound 190] | 100 to 500
19 | CNc1cc2ncc(-c3cc(NC(=O)c4cccc(C5(C#N)CC5)c4)cnc3C)cc2cn1 [compound 191] | 20 to 100
20 | CNc1ncc2cc(-c3cc(NC(=O)c4ccnc(C(C)(C)C#N)c4)cnc3C)cnc2c1C#N [compound 192] | 100 to 500
21 | CNc1cc2ncc(-c3cc(NC(=O)c4cccc(C(C)(C)C#N)c4)ccc3C)cc2cn1 [compound 193] | < 20

Row | SMILES | IC50 [nM]
22 | CNc1cc2ncc(-c3cc(NC(=O)c4c[nH]c5ccccc45)cnc3C)cc2cn1 [compound 194] | 20 to 100
23 | CNc1cc2ncc(-c3cc(NC(=O)c4cnc5n4CCC(C)C5)ccc3C)cc2cn1 (stereo not drawn) [compound 195] | > 500
24 | CNc1cc2ncc(-c3cc(C(=O)Nc4cccc(C(C)(C)C#N)c4)cnn3)cc2cn1 [compound 196] | > 500
25 | CNc1cc2ncc(-c3c(C)ncc(NC(=O)c4cc(C(C)(C)C#N)ccn4)c3Cl)cc2cn1 [compound 197] | > 500
26 | CNc1cc2ncc(-c3cc(NC(=O)c4cccc5c4CCCC5=O)cnc3C)cc2cn1 [compound 198] | > 500
27 | CNc1cc2ncc(-c3cc(NC(=O)c4cccc(C(C)(F)F)c4)cnc3C)cc2cn1 [compound 200] | < 20
28 | CNc1cc2ncc(-c3cc(NC(=O)c4cc(C(O)C5CC5)ccn4)cnc3C)cc2cn1 (stereo not drawn) [compound 201] | 20 to 100
29 | CNc1cc2ncc(-c3cc(NC(=O)c4cc(C(O)C(C)C)ccn4)cnc3C)cc2cn1 (stereo not drawn) [compound 202] | 20 to 100
30 | CNc1cc2ncc(-c3cc(NC(=O)c4cc(C(NC)C(F)(F)F)ccn4)ccc3C)cc2cn1 (stereo not drawn) [compound 203] | < 20
31 | CNc1cc2ncc(-c3cc(NC(=O)c4cnc5n4CC(C)CC5)ccc3C)cc2cn1 (stereo not drawn) [compound 204] | < 20
32 | CNc1cc2ncc(-c3cc(NC(=O)c4cnc5n4C(C)CCC5)ccc3C)cc2cn1 (stereo not drawn) [compound 205] | 100 to 500
33 | CNc1cc2ncc(-c3cc(NC(=O)c4cc(C(O)(O)C(F)(F)F)ccn4)cnc3C)cc2cn1 [compound 206] | 20 to 100
34 | CNc1cc2ncc(-c3cc(NC(=O)c4cccc5c4CCC[C@H]5O)cnc3C)cc2cn1 [compound 207] | > 500
35 | CNc1cc2ncc(-c3cc(NC(=O)c4cnc5n4CCCC5)cnc3C)cc2cn1 [compound 209] | > 500
36 | CNc1cc2ncc(-c3cc(NC(=O)c4cccc(C(O)C(F)(F)F)n4)cnc3C)cc2cn1 (stereo not drawn) [compound 210] | > 500
37 | CNc1cc2ncc(-c3cc(NC(=O)c4nccc5c4OCCC5O)cnc3C)cc2cn1 (stereo not drawn) [compound 211] | > 500
38 | CNc1cc2ncc(-c3cc(NC(=O)c4cccc5c4CCC5=O)cnc3C)cc2cn1 [compound 212] | > 500
39 | CNc1cc2ncc(-c3cc(C(=O)Nc4cc(C(C)(C)C#N)ccn4)cnn3)cc2cn1 [compound 213] | > 500
40 | CNc1cc2ncc(-c3cc(NC(=O)c4cnc5n4CCCC5C)ccc3C)cc2cn1 (stereo not drawn) [compound 214] | 20 to 100
41 | CNc1cc2ncc(-c3cc(NC(=O)c4cccc5c4NC(=O)C5(C)C)ccc3C)cc2cn1 [compound 215] | 20 to 100
42 | CNc1cc2ncc(-c3cc(NC(=O)c4cnc5n4CCCC5)ccc3C)cc2cn1 [compound 216] | 100 to 500

Row | SMILES | IC50 [nM]
43 | CNc1cc2ncc(-c3cc(NC(=O)c4ccnc(C(C)(C)C#N)c4)c(F)cc3C)cc2cn1 [compound 217] | 20 to 100
44 | CNc1cc2ncc(-c3cc(NC(=O)c4cc(C(N(C)C)C(F)(F)F)ccn4)ccc3C)cc2cn1 (stereo not drawn) [compound 218] | 20 to 100
45 | CNc1cc2ncc(-c3cc(NC(=O)c4cccc5c4CCC5O)cnc3C)cc2cn1 (stereo not drawn) [compound 219] | > 500
46 | CNc1cc2ncc(-c3cc(NC(=O)c4cnc5n4CC(C(F)(F)F)CC5)ccc3C)cc2cn1 (stereo not drawn) [compound 220] | 20 to 100
47 | CNc1cc2ncc(-c3cc(NC(=O)c4ccnc(C5(F)CC5)c4)c(F)cc3C)cc2cn1 [compound 221] | 20 to 100
48 | CNc1cc2ncc(-c3cc(NC(=O)c4ccnc(C(C)(C)F)c4)c(F)cc3C)cc2cn1 [compound 222] | 20 to 100
49 | CNc1cc2ncc(-c3cc(NC(=O)c4cccc(C(C)(C)C#N)c4)c(F)cc3C)cc2cn1 [compound 223] | 20 to 100
50 | CNc1cc2ncc(-c3cc(NC(=O)c4cc(C(F)(F)F)ccn4)c(F)cc3C)cc2cn1 [compound 224] | 100 to 500
51 | CNc1cc2ncc(-c3cc(NC(=O)c4cnc5n4CC(C)CC5)cnc3C)cc2cn1 (stereo not drawn) [compound 225] | 20 to 100
52 | CNc1cc2ncc(-c3cc(NC(=O)c4ccccc4NC(C)C(F)F)cnc3C)cc2cn1 (stereo not drawn) [compound 226] | 20 to 100
53 | CCC(C)c1ccnc(C(=O)Nc2cnc(C)c(-c3cnc4cc(NC)ncc4c3)c2)c1 (stereo not drawn) [compound 227] | 20 to 100
54 | CNc1cc2ncc(-c3cc(NC(=O)c4noc5c4CCCC5)ccc3C)cc2cn1 [compound 228] | 100 to 500
55 | CNc1cc2ncc(-c3cc(NC(=O)c4n[nH]c5c4CCCC5)cnc3C)cc2cn1 [compound 229] | 20 to 100
56 | CNc1cc2ncc(-c3cc(NC(=O)c4cnc5n4C[C@H](C)CC5)ccc3C)cc2cn1 [compound 230] | 20 to 100
57 | CNc1cc2ncc(-c3cc(NC(=O)c4cnc5n4C[C@@H](C)CC5)ccc3C)cc2cn1 [compound 231] | 20 to 100
58 | CNc1cc2ncc(-c3cc(NC(=O)c4cnc5n4CCCCC5)cnc3C)cc2cn1 [compound 232] | 100 to 500
59 | CNc1cc2ncc(-c3cc(NC(=O)c4nn(C)c5c4CCCC5)cnc3C)cc2cn1 [compound 233] | 20 to 100
60 | CNc1cc2ncc(-c3cc(NC(=O)c4csc5c4CCCC5)cnc3C)cc2cn1 [compound 234] | 20 to 100
61 | CNc1cc2ncc(-c3cc(NC(=O)c4csc5c4CCC(C)C5)cnc3C)cc2cn1 (stereo not drawn) [compound 235] | 20 to 100
62 | CNc1cc2ncc(-c3cc(NC(=O)c4noc5c4C[C@@H](C)CC5)ccc3C)cc2cn1 [compound 236] | 20 to 100
63 | CNc1cc2ncc(-c3cc(NC(=O)c4noc5c4C[C@H](C)CC5)ccc3C)cc2cn1 [compound 237] | 20 to 100
